Consider five molecules from patent publication US5767129A, “Substituted quinolines and isoquinolines as calcium channel blockers, their preparation and the use thereof” (Warner-Lambert Company, priority 1996, dated 1998).

Structures are written as SMILES.

Test [1] addresses T1, N-type calcium channels (IMR-32 cells) (Homo sapiens, UniProt Q00975).
T1 construct: host or cells: IMR-32 cells, differentiated with dibutyryl cAMP and bromodeoxyuridine
The test is described as follows: N-type Ca2+ channel blocking in IMR-32 cells using the fluorescent Ca2+ indicator Indo-1. In kind it is cell-based. To be noted: 5 μM nitrendipine to block L-type channels, KCl depolarization, 30° C., read-out: Inhibition of Ca^+2 Influx in IMR-32 Cells IC50. As to the method: Measurement of N-type Ca2+ Channel Blocking Potencies of Compounds in IMR-32 Cells Using the Fluorescent Ca2+ Indicator Indo-1 IMR-32 cells are a human tumoral cell line of neural origin. […] Calcium flux into these cells may be induced by stimulation with elevated potassium concentrations. The L-channel component of calcium flux may be blocked by adding 5 μM nitrendipine. The remaining component of calcium entry into the IMR-32 cells is due to calcium flux through N-type calcium channels. Intracellular calcium concentrations are measured using the fluorescent calcium indicator Indo-1. The effect of drug concentration on calcium uptake is studied. Methods The IMR-32 cell line was obtained from the American Type Culture Collection (Rockville, Md.). Cells were grown in Eagle's Minimum Essential Medium with Earle's salts supplemented with 10% fetal bovine serum, 2 mM L-Gln and antibiotic/antimicotic mixture (Gibco). At approximately 80% confluency, differentiation was induced by the addition of 1 mM dibutyryl cAMP and 2.5 μM bromodeoxyuridine to the medium. After 7 to 13 days of differentiation, cells were detached using 0.5 mM EDTA and loaded with five 5 μM Indo-1 acetoxymethyl ester (Molecular Probes, Eugene, Oreg.) at 30° C. for 45 minutes. Loaded cells were washed twice, resuspended (~10^7 cells/mL) in assay buffer (10 mM HEPES/Tris pH 7.4 in Hank's Balanced Salt Solution without bicarbonate or phenol red containing 0.5% bovine serum albumin) and kept on ice until use. Fluorescence measurements were carried out in a Photon Technology International (PTI, South Brunswick, N.J.) Model RF-[…] spectrofluorometer with dual emission monochromators using excitation at 350 nm and emission at 400 and 490 nm. The instrument was equipped with a thermostatted cuvette holder with stirring capabilities as well as with a computer-controlled pump which allowed for reagent addition during measurement. Instrument control and data collection was done by PTI's OSCAR software running on an IBM compatible computer. […] At 20 seconds after the start of reading, cells were depolarized by the addition of 160 μL of stimulation solution (1M KCl, 68 mM CaCl2) to the cuvette via the computer-controlled pump. Ratio of dual emission signals (400 nm/490 nm), which is proportional to intracellular Ca^2+ concentration, was plotted against time, and the difference between maximal response after stimulation and basal value (before stimulation) was determined. […] IC50 values of test compounds were calculated by fitting a four-parameter logistic function to the data using the least squares method.

The subject of the next test is ischemia and pain. The following applies: Bowersox et al. 1994; cited from earlier work.

T1 sequence (Q00975 whole entry): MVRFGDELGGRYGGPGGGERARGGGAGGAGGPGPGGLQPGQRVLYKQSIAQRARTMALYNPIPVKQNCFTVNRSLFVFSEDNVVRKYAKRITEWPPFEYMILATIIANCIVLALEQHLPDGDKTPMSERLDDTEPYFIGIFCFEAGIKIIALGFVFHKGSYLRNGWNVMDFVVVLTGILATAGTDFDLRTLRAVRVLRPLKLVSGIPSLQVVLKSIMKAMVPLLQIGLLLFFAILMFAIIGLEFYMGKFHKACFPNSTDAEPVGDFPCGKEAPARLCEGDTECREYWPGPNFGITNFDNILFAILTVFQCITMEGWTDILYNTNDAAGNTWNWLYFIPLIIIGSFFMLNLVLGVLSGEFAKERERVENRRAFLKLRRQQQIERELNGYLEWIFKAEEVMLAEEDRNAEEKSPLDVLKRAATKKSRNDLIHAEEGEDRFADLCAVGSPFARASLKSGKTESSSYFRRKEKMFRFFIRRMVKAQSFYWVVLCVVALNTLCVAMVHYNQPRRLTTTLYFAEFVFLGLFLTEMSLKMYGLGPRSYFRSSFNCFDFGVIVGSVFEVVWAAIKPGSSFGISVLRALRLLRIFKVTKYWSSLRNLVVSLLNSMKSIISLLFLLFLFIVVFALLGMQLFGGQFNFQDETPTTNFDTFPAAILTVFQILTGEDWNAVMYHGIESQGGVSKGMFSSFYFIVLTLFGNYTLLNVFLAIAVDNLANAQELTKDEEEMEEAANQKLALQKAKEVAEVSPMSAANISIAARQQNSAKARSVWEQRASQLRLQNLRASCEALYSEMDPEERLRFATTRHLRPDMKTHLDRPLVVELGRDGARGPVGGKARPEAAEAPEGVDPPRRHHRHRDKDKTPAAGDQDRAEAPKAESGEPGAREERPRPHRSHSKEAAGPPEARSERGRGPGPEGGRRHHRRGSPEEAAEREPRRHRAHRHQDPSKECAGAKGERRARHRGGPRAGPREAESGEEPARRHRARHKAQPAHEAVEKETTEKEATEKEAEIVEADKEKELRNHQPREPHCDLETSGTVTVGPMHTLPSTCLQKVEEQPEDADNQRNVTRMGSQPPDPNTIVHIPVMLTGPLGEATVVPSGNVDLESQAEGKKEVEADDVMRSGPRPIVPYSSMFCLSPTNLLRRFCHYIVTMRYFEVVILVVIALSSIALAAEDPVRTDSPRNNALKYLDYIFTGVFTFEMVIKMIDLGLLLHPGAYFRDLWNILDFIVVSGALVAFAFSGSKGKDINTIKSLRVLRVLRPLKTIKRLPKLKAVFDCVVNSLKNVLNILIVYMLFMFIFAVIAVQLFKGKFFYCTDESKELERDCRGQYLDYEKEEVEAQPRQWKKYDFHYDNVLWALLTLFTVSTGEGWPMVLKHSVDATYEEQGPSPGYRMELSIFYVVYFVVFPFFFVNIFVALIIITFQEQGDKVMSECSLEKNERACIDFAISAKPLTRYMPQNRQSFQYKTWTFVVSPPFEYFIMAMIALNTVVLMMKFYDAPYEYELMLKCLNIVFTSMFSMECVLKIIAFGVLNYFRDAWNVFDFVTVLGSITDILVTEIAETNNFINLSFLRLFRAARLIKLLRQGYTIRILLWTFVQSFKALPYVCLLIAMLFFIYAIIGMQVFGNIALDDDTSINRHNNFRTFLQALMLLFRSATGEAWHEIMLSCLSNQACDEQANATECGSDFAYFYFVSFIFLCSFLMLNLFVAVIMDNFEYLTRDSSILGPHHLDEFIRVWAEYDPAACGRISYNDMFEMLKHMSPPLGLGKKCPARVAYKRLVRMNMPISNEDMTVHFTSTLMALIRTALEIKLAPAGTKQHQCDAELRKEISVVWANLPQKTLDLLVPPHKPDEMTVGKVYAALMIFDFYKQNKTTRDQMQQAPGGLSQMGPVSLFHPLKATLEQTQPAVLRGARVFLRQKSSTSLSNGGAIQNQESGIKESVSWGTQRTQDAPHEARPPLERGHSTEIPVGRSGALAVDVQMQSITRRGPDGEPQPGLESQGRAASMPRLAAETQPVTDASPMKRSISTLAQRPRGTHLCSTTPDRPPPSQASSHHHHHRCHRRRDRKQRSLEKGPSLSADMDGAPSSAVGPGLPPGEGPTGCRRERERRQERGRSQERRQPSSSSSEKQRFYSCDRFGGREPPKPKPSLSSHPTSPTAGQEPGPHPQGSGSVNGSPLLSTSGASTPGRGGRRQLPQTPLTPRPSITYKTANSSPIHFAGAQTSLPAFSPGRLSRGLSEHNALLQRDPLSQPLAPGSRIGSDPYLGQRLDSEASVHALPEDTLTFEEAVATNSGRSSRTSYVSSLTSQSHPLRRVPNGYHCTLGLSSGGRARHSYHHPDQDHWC

As to `Oc1c(CN2CCCCCC2)ccc2c1CCN(CCCC(c1ccccc1)c1ccccc1)C2` [Example 6, 6-Azepan-1-ylmethyl-2-(4,4-diphenylbutyl)-1,2,3,4-tetrahydroisoquinolin-5-o], the IC50 in test [1] stood at 820 nM.
For `Oc1c(CNC2CCCCC2)ccc2c1CCN(CCCC(c1ccccc1)c1ccccc1)C2` [Example 7, 6-Cyclohexylaminomethyl-2-(4,4-diphenylbutyl)-1,2,3,4-tetrahydroisoquinolin-5-ol], the 50% inhibitory concentration (IC50) in test [1] is 1000 nM.
As for `Oc1c(CN2CCCCCC2)ccc2c1CCN(CCCC(c1ccc(F)cc1)c1ccc(F)cc1)C2` [Example 11, 6-Azepan-1-ylmethyl-2-[4,4-bis-(4-fluorophenyl)-butyl]-1,2,3,4-tetrahydroisoquinolin-5-ol], the IC50 in test [1] is 1300 nM.
Turning to `CSCC[C@@H]1NC(=O)[C@H](CC(C)C)NC(=O)[C@H](CCCNC(=N)N)NC(=O)[C@H](CO)NC(=O)[C@@H]2CSSC[C@@H]3NC(=O)[C@H](CO)NC(=O)CNC(=O)[C@H]([C@@H](C)O)NC(=O)[C@H](CSSC[C@H](N)C(=O)N[C@@H](CCCCN)C(=O)NCC(=O)N[C@@H](CCCCN)C(=O)NCC(=O)N[C@@H](C)C(=O)N[C@@H](CCCCN)C(=O)N2)NC(=O)[C@H](CSSC[C@@H](C(N)=O)NC(=O)[C@H](CCCCN)NC(=O)CNC(=O)[C@H](CO)NC(=O)[C@H](CCCNC(=N)N)NC3=O)NC(=O)[C@H](CC(=O)O)NC(=O)[C@H](Cc2ccc(O)cc2)NC1=O` [SNX-111], the “activity in models of ischemia and pain (in words)” value in the test with ischemia and pain was “demonstrated activity in a number of models of ischemia and pain”.
On to `c1ccc(C(CCCN2CCc3c(ccc4c3OCN(C3CCCCC3)C4)C2)c2ccccc2)cc1` [Example 8, 2-Cyclohexyl-7-(4,4-diphenylbutyl)-2,3,5,6,7,8-hexahydro-1H-4-oxa-2,7-diazaphenanthrene], for which the IC50 in test [1] was 1100 nM.
